Test results: patent US20060069132A1, “Azolecarboxamide herbicides” (priority 2004, published 2006)

What was measured:
[1] = tested on: yellow nutsedge; assay: Test C pre-/postemergence herbicide test; assay type: in vivo, Cyperus esculentus; settings: for Nutsedge, Yellow plant response rating: 500 g ai/ha
How it was run: (§1)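 Emerged plants at the 1- to 4-leaf stage (2–18 cm), or freshly planted seeds, received test chemicals in a non-phytotoxic solvent mixture with surfactant. Response was visually scored against controls after 12 to 14 days in the greenhouse, on a 0 (no effect) to 100 (complete control) scale.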

[2] = tested on: goosegrass; assay: Test C pre-/postemergence herbicide test; assay type: in vivo, Eleusine indica; settings: for Goosegrass plant response rating: 500 g ai/ha
How it was run: as §1

[3] = tested on: velvetleaf; assay: Test A pre-/postemergence herbicide test; assay type: in vivo, Abutilon theophrasti
How it was run: (§2)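 Both application timings were run together: directed soil spray over freshly planted seeds in sandy loam, and runoff spray onto 2–10 cm seedlings. Evaluation after ~10 days in greenhouse used a 0–100 visual scale versus untreated controls.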

[4] = tested on: bermudagrass; assay: Test C pre-/postemergence herbicide test; assay type: in vivo, Cynodon dactylon; settings: for Bermudagrass plant response rating: 500 g ai/ha
How it was run: as §1

[5] = tested on: corn; assay: Test C pre-/postemergence herbicide test; assay type: in vivo, Zea mays; settings: for Corn plant response rating: 500 g ai/ha
How it was run: as §1

[6] = tested on: giant foxtail; assay: Test C pre-/postemergence herbicide test; assay type: in vivo, Setaria faberi; settings: for Foxtail, Giant plant response rating: 500 g ai/ha
How it was run: as §1

[7] = tested on: cocklebur; assay: Test C pre-/postemergence herbicide test; assay type: in vivo, Xanthium strumarium; settings: for Cocklebur plant response rating: 500 g ai/ha
How it was run: as §1

[8] = tested on: morningglory; assay: Test C pre-/postemergence herbicide test; assay type: in vivo, Ipomoea coccinea; design: key to Plant response rating, Morningglory: 0 = no effect, 100 = complete control; settings: for Morningglory plant response rating: 500 g ai/ha
How it was run: as §1

[9] = tested on: woolly cupgrass; assay: Test C pre-/postemergence herbicide test; assay type: in vivo, Eriochloa villosa; settings: for Cupgrass, Woolly plant response rating: 500 g ai/ha
How it was run: as §1

[10] = tested on: velvetleaf; assay: Test C pre-/postemergence herbicide test; assay type: in vivo, Abutilon theophrasti; settings: for Velvetleaf plant response rating: 500 g ai/ha
How it was run: as §1

[11] = tested on: soybean; assay: Test C pre-/postemergence herbicide test; assay type: in vivo, Glycine max; settings: for Soybean plant response rating: 500 g ai/ha
How it was run: as §1

[12] = tested on: kochia; assay: Test C pre-/postemergence herbicide test; assay type: in vivo, Kochia scoparia; settings: for Kochia plant response rating: 500 g ai/ha
How it was run: as §1

[13] = tested on: barnyardgrass; assay: Test C flooded paddy test; assay type: in vivo, Echinochloa crus-galli
How it was run: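 Visual rating, 0 (no effect) to 100 (complete control), vs. controls at 12–14 d in greenhouse. Postemergence: 1–4-leaf plants, 2–18 cm. Paddy: flooded, barnyardgrass at 2-leaf stage.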

[14] = tested on: redroot pigweed; assay: Test A pre-/postemergence herbicide test; assay type: in vivo, Amaranthus retroflexus
How it was run: as §2

[15] = 125 g ai/ha, scale 0 (no effect) to 100 (complete control), visual, 12 to 14 days, preemergence
[16] = Postemergence, 250 g ai/ha, scale 0 to 100, 0 no effect, 100 complete control
[17] = Preemergence, scale 0 to 100, 0 no effect, 100 complete control
[18] = postemergence, 125 g ai/ha, scale 0 to 100
[19] = postemergence, 62 g ai/ha, scale 0 to 100
[20] = Postemergence, 500 g ai/ha, 0 to 100 scale, 0 no effect, 100 complete control
[21] = Postemergence, 2000 g ai/ha, 0 to 100 scale, 0 no effect, 100 complete control
[22] = Preemergence, 500 g ai/ha, visual rating, 0 to 100 scale (0 no effect, 100 complete control)
[23] = 250 g ai/ha, scale 0 to 100 (0 no effect, 100 complete control), visual, 12 to 14 days, preemergence

## CCOC(=O)c1cc(NC(=O)c2cc(C(C)(C)C)nn2CC)ccc1OC [Compound 96]
[1]; 62 g ai/ha, preemergence
  Plant response rating (0 = no effect, 100 = complete control), Nutsedge, Yellow: 0
[1]; [15]
  Plant response rating, Nutsedge, Yellow: 0
[1]; Postemergence, scale 0 to 100
  Nutsedge, Yellow plant response rating: 5
[1]; [16]
  Plant response rating, Nutsedge, Yellow: 5
[1]; [17]
  Nutsedge, Yellow plant response rating: 10
[1]; [18]
  Plant response rating, Nutsedge, Yellow: 0
[1]; [19]
  Plant response rating, Nutsedge, Yellow: 0
[2]; 62 g ai/ha, preemergence
  Plant response rating (0 = no effect, 100 = complete control), Goosegrass: 30
[2]; [15]
  Plant response rating, Goosegrass: 80
[2]; Postemergence, scale 0 to 100
  Goosegrass plant response rating: 5
[2]; [16]
  Plant response rating, Goosegrass: 5
[2]; [17]
  Goosegrass plant response rating: 95
[2]; [18]
  Plant response rating, Goosegrass: 5
[2]; [19]
  Plant response rating, Goosegrass: 5
[3]; [20]
  Velvetleaf plant response rating: 70
[3]; [21]
  Plant response rating, Velvetleaf: 70
[3]; [22]
  Velvetleaf plant response rating: 95
[3]; Preemergence, 2000 g ai/ha, visual rating, 0 to 100 scale (0 no effect, 100 complete control)
  Velvetleaf plant response rating: 100
[4]; 62 g ai/ha, preemergence
  Plant response rating (0 = no effect, 100 = complete control), Bermudagrass: 40
[4]; [15]
  Plant response rating, Bermudagrass: 80
[4]; [23]
  Plant response rating, Bermudagrass: 85
[4]; Postemergence, scale 0 to 100
  Bermudagrass plant response rating: 5
[4]; [16]
  Plant response rating, Bermudagrass: 5
[4]; [17]
  Bermudagrass plant response rating: 100
[4]; [18]
  Plant response rating, Bermudagrass: 0
[4]; [19]
  Plant response rating, Bermudagrass: 0
[5]; 62 g ai/ha, preemergence
  Plant response rating (0 = no effect, 100 = complete control), Corn: 15
[5]; [15]
  Plant response rating, Corn: 15
[5]; [23]
  Plant response rating, Corn: 30
[5]; Postemergence, scale 0 to 100
  Corn plant response rating: 45
[5]; [16]
  Plant response rating, Corn: 35
[5]; [17]
  Corn plant response rating: 40
[5]; [18]
  Plant response rating, Corn: 30
[5]; [19]
  Plant response rating, Corn: 30
[6]; 62 g ai/ha, preemergence
  Plant response rating (0 = no effect, 100 = complete control), Foxtail, Giant: 70
[6]; [15]
  Plant response rating, Foxtail, Giant: 100
[6]; [23]
  Plant response rating, Foxtail, Giant: 100
[6]; Postemergence, scale 0 to 100
  Foxtail, Giant plant response rating: 60
[6]; [16]
  Plant response rating, Foxtail, Giant: 45
[6]; [17]
  Foxtail, Giant plant response rating: 100
[6]; [18]
  Plant response rating, Foxtail, Giant: 20
[6]; [19]
  Plant response rating, Foxtail, Giant: 10
[7]; 62 g ai/ha, preemergence
  Plant response rating (0 = no effect, 100 = complete control), Cocklebur: 0
[7]; [15]
  Plant response rating, Cocklebur: 5
[7]; [23]
  Plant response rating, Cocklebur: 20
[7]; Postemergence, scale 0 to 100
  Cocklebur plant response rating: 95
[7]; [16]
  Plant response rating, Cocklebur: 90
[7]; [17]
  Cocklebur plant response rating: 90
[7]; [18]
  Plant response rating, Cocklebur: 10
[7]; [19]
  Plant response rating, Cocklebur: 5
[8]; 62 g ai/ha, preemergence
  Plant response rating (0 = no effect, 100 = complete control), Morningglory: 0
[8]; [15]
  Plant response rating, Morningglory: 50
[8]; Postemergence, scale 0 to 100
  Morningglory plant response rating: 50
[8]; [16]
  Plant response rating, Morningglory: 30
[8]; [17]
  Morningglory plant response rating: 100
[8]; [18]
  Plant response rating, Morningglory: 5
[8]; [19]
  Plant response rating, Morningglory: 0
[9]; 62 g ai/ha, preemergence
  Plant response rating (0 = no effect, 100 = complete control), Cupgrass, Woolly: 5
[9]; [15]
  Plant response rating, Cupgrass, Woolly: 10
[9]; [23]
  Plant response rating, Cupgrass, Woolly: 20
[9]; Postemergence, scale 0 to 100
  Cupgrass, Woolly plant response rating: 50
[9]; [16]
  Plant response rating, Cupgrass, Woolly: 30
[9]; [17]
  Cupgrass, Woolly plant response rating: 70
[9]; [18]
  Plant response rating, Cupgrass, Woolly: 30
[9]; [19]
  Plant response rating, Cupgrass, Woolly: 5
[10]; [15]
  Plant response rating, Velvetleaf: 50
[10]; Postemergence, scale 0 to 100
  Velvetleaf plant response rating: 95
[10]; [16]
  Plant response rating, Velvetleaf: 70
[10]; [17]
  Velvetleaf plant response rating: 100
[10]; [18]
  Plant response rating, Velvetleaf: 70
[10]; [19]
  Plant response rating, Velvetleaf: 40
[11]; 62 g ai/ha, preemergence
  Plant response rating (0 = no effect, 100 = complete control), Soybean: 0
[11]; [15]
  Plant response rating, Soybean: 5
[11]; Postemergence, scale 0 to 100
  Soybean plant response rating: 100
[11]; [16]
  Plant response rating, Soybean: 100
[11]; [17]
  Soybean plant response rating: 50
[11]; [18]
  Plant response rating, Soybean: 100
[11]; [19]
  Plant response rating, Soybean: 100
[12]; 62 g ai/ha, preemergence
  Plant response rating (0 = no effect, 100 = complete control), Kochia: 90
[12]; [15]
  Plant response rating, Kochia: 95
[12]; Postemergence, scale 0 to 100
  Kochia plant response rating: 90
[12]; [16]
  Plant response rating, Kochia: 85
[12]; [17]
  Kochia plant response rating: 100
[12]; [18]
  Plant response rating, Kochia: 80
[12]; [19]
  Plant response rating, Kochia: 80
[13]; 62 g ai/ha, scale 0 to 100 (0 no effect, 100 complete control)
  Barnyardgrass plant response rating: 45
[13]; 125 g ai/ha, scale of 0 to 100, 0 is no effect, 100 is complete control
  Barnyardgrass plant response rating: 45
[13]; 250 g ai/ha, scale of 0 to 100, 0 is no effect, 100 is complete control
  Barnyardgrass plant response rating: 70
[13]; 500 g ai/ha, visual rating after 12 to 14 days, scale 0 to 100 (0 no effect, 100 complete control)
  Plant response rating, Barnyardgrass: 80
[14]; [20]
  Pigweed plant response rating: 95
[14]; [21]
  Plant response rating, Pigweed: 100
[14]; [22]
  Pigweed plant response rating: 100
[14]; Preemergence, 2000 g ai/ha, 0 to 100 scale, 0 no effect, 100 complete control
  Pigweed plant response rating: 100
